Laboratory results from patent US20160159773A1, “HETEROCYCLIC COMPOUND” (TAKEDA PHARMACEUTICAL COMPANY LIMITED, priority 2013, published 2016).
Counter-ions that a name gives are not always drawn.

Target: T1, Tyk2 (Homo sapiens, UniProt P29597)
T1 construct: purchased Invitrogen
Assay: Tyk2 enzyme inhibition test (LANCE method)
Format: biochemical
Conditions: test compound 1 μM; well without enzyme = 100% inhibition; read-out: Tyk2 enzyme inhibitory activity (%, 1 μM)
Experimental: Tyk2 Enzyme Inhibition Test
Tyk2 enzyme inhibitory activity of test compounds was measured by LANCE method (PerkinElmer). First, a test compound diluted with assay buffer (50 mM HEPES (pH=7.5), 10 mM MgCl2, 1 mM EGTA, 2 mM DTT, 0.01% Tween20, 0.01% BSA) was added to 384-well plate at 2 μL each. Then, a Tyk2 (Invitrogen) solution and a fluorescence-labeled peptide substrate (ULight-JAK1, PerkinElmer) solution diluted with assay buffer at 375 ng/mL and 300 nM, respectively were added at 2 μL each. Then, enzyme reaction was started by adding 2 μL each of ATP solution prepared with assay buffer at 30 μM. After the reaction at room temperature for 1 hr, Detection Buffer (PerkinElmer) prepared to be 20 mM EDTA, 4 nM europium-labeled anti-phosphotyrosine antibody (PerkinElmer) was added at 6 μL each. After standing at room temperature for 1 hr, fluorescence intensity (excitation wavelength 340 nm, fluorescence wavelength 665 nm, delay time 100 microsecond) was measured by a plate reader, Envision (PerkinElmer). The inhibitory activity of each compound was calculated as relative value where fluorescence intensity of a well without enzyme is considered as 100% inhibition.

T1 sequence (P29597 whole entry): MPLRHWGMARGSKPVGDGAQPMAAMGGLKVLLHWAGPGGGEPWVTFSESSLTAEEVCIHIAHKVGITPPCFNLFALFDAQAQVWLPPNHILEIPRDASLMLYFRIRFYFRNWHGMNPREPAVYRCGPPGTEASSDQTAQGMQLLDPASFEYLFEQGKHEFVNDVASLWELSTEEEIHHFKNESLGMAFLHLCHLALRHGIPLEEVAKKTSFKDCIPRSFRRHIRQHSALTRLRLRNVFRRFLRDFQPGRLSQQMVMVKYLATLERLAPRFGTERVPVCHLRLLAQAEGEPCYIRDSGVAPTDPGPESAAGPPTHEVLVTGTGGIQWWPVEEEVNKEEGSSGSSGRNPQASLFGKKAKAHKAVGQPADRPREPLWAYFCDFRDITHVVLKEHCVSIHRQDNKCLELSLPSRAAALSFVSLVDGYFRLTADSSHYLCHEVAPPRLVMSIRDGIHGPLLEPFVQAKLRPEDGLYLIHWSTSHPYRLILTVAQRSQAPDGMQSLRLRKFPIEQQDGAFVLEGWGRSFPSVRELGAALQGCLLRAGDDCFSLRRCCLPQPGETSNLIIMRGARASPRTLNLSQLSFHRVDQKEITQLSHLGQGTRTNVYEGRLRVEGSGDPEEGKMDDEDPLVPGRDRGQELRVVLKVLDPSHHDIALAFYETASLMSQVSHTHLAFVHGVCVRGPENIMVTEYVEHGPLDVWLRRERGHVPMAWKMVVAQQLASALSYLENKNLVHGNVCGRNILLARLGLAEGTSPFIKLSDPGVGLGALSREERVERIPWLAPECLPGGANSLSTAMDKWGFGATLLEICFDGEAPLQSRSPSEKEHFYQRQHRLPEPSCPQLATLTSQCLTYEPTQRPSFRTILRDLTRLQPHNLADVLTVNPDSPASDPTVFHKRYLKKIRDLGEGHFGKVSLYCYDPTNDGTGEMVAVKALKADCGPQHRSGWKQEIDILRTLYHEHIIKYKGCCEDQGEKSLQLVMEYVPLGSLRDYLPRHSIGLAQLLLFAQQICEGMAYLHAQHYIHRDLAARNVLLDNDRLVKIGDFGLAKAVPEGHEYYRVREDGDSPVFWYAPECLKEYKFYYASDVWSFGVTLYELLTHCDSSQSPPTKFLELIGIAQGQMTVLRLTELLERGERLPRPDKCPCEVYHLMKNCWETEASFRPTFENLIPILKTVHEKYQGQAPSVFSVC

SMILES	inhibition at 1 µM [%]
N#C[C@@]1(C2CC2)CCN(c2ccnc(Nc3ccc(N4CCOCC4)cn3)c2)C1=O [Example 1, (3S)-3-cyclopropyl-1-(2-((5-(morpholin-4-yl)pyridin-2-yl)amino)pyridin-4-yl)-2-oxopyrrolidine-3-carbonitrile]	99
CC(C)(O)c1ccc(Nc2cc(N3CC[C@@](C#N)(C4CC4)C3=O)ccn2)nc1 [Example 3, (3S)-3-cyclopropyl-1-(2-((5-(2-hydroxypropan-2-yl)pyridin-2-yl)amino)pyridin-4-yl)-2-oxopyrrolidine-3-carbonitrile]	99
CNC(=O)c1cc(Nc2cc(N3CC[C@@](C#N)(C4CC4)C3=O)ccn2)nn1C [Example 5, 3-((4-((3S)-3-cyano-3-cyclopropyl-2-oxopyrrolidin-1-yl)pyridin-2-yl)amino)-N,1-dimethyl-1H-pyrazole-5-carboxamide]	101
N#CC1(C2CC2)CCN(c2ccnc(Nc3ccc(N4CCOCC4)cn3)c2)C1=O (stereo not shown) [Example 127, 3-cyclopropyl-1-(2-((5-(morpholin-4-yl)pyridin-2-yl)amino)pyridin-4-yl)-2-oxopyrrolidine-3-carbonitrile]	83
CC(C)(CO)n1cc(Nc2cc(N3CCC(C#N)(C4CC4)C3=O)ccn2)cn1 (stereo not shown) [Example 129, 3-cyclopropyl-1-(2-((1-(1-hydroxy-2-methylpropan-2-yl)-1H-pyrazol-4-yl)amino)pyridin-4-yl)-2-oxopyrrolidine-3-carbonitrile]	90
CNC(=O)c1cc(Nc2cc(N3C(=O)[C@](C#N)(C4CC4)C[C@H]3C)ccn2)nn1C [Example 136, 3-((4-((3S,5R)-3-cyano-3-cyclopropyl-5-methyl-2-oxopyrrolidin-1-yl)pyridin-2-yl)amino)-N,1-dimethyl-1H-pyrazole-5-carboxamide]	106
Cn1nc(Nc2cc(N3CC[C@@](C#N)(C4CC4)C3=O)ccn2)cc1C(N)=O [Example 138, 3-((4-((3S)-3-cyano-3-cyclopropyl-2-oxopyrrolidin-1-yl)pyridin-2-yl)amino)-1-methyl-1H-pyrazole-5-carboxamide]	102

Next, values leading:

inhibition at 1 µM [%]	SMILES
100	CC(=O)Nc1ccnc(Nc2cc(N3CC[C@@](C#N)(C4CC4)C3=O)ccn2)c1 [Example 29, N-(2-((4-((3S)-3-cyano-3-cyclopropyl-2-oxopyrrolidin-1-yl)pyridin-2-yl)amino)pyridin-4-yl)acetamide]
100	Cn1nc(Nc2cc(N3CC[C@@](C#N)(C4CC4)C3=O)ccn2)cc1N1CCOCC1 [Example 31, (3S)-3-cyclopropyl-1-(2-((1-methyl-5-(morpholin-4-yl)-1H-pyrazol-3-yl)amino)pyridin-4-yl)-2-oxopyrrolidine-3-carbonitrile]
95	N#C[C@@]1(C2CC2)CCN(c2ccnc(Nc3cc(C(F)(F)F)ncn3)c2)C1=O [Example 43, (3S)-3-cyclopropyl-2-oxo-1-(2-((6-(trifluoromethyl)pyrimidin-4-yl)amino)pyridin-4-yl)pyrrolidine-3-carbonitrile]
96	N#C[C@@]1(C2CC2)CCN(c2ccnc(Nc3cccnn3)c2)C1=O [Example 92, (3S)-3-cyclopropyl-2-oxo-1-(2-(pyridazin-3-ylamino)pyridin-4-yl)pyrrolidine-3-carbonitrile]
72	CCC1(C#N)CCN(c2ccnc(Nc3ccc(N4CCOCC4)cn3)c2)C1=O (stereo not shown) [Example 126, 3-ethyl-1-(2-((5-(morpholin-4-yl)pyridin-2-yl)amino)pyridin-4-yl)-2-oxopyrrolidine-3-carbonitrile hydrochloride]
107	C[C@@H]1C[C@@](C#N)(C2CC2)C(=O)N1c1ccnc(Nc2cc(C(N)=O)n(C)n2)c1 [Example 137, 3-((4-((3S,5R)-3-cyano-3-cyclopropyl-5-methyl-2-oxopyrrolidin-1-yl)pyridin-2-yl)amino)-1-methyl-1H-pyrazole-5-carboxamide]
